These results are taken from patent publication US8784804B2, “Nutraceutical composition that comprises extract of andean shilajit, for preventing and/or treating neurodegenerative diseases and/or the cognitive deterioration associated with cerebral aging” (Centro Internacional de Biomedicina (ICC), priority 2009, dated 2014).

The data set deals with neuroblastoma cells (N-115 cell line). Nature of the data set: Shilajit's toxicity in nerve cell culture (MTT assay, calcein-AM). Format: cell-based. The settings on record: 10 mM H2O2, positive control of neuronal death. On the procedure: The toxicity of the composition's main component was determined, whose toxicity in nerve cells was unknown up to now. This study consisted in the application of concentrations ranging from 10 to 50 mg/mL to a culture of neuroblastoma cells (N-115 cell line) (MTT assay) and subsequent observation of neuronal death through fluorescent microscopy using the calcein-AM method that determines the morphologic integrity.

`OO` [H2O2]: the “% neuronal death” value was 100.0% and the A550 is on record as 0.050.
